Experiments:
Type in all cases: in vivo
barnyardgrass [1] = test: Test Example 1: herbicidal effects in preemergence treatment under submerged conditions; conditions: dose 2.52 g/a
Source text: (§1) Test on the Herbicidal Effects in Preemergence Treatment on Weeds Under Submerged Conditions
(§2) Alluvial soil was put in 1/30000-are styrol cups and admixed with water so that it was submerged at a depth of 4 cm. In each cup, seeds of barnyardgrass, bulrush and ducksalad were sown together, and rice seedlings at the 2.5-leaf stage were transplanted. On the same day as the seeding, emulsifiable concentrates containing compounds of the present invention formulated in accordance with Formulation Example 2 were applied to the water surfaces at predetermined doses after diluted with water. The cups were placed in a greenhouse at 25 to 30° C. to grow the plants. Three weeks after the application, the herbicidal effects against various plants were determined on the following evaluation scale.
(§3) 5 mortality of 90% or above (nearly complete death)
(§4) 4 mortality of at least 70% and less than 90%
(§5) 3 mortality of at least 40% and less than 70%
(§6) 2 mortality of at least 20% and less than 40%
(§7) 1 mortality of at least 5% and less than 20%
(§8) 0 mortality of less than 5% (almost ineffective)
(§9) A: barnyardgrass, B: bulrush, C: ducksalad, D: large crabgrass, E: giant foxtail, F: wild oat, G: water foxtail, H: Italian ryegrass, I: velvetleaf, J: common ragweed, K: redroot pigweed, L: common lambsquater, M: posumbu knotweed, N: common chickweed, O: beadstraw, a: transplanted rice, b: corn, c: soybean, d: direct-seeded rice, e: wheat, f: sugar beet.
(§10) The doses (g/a) represents the amounts in g per 1 are (a) applied after adjustment of concentration adjustment.

bulrush [2] = test: as above; conditions: dose 2.52 g/a
Source text: as §1, §2, §3, §4, §5, §6, §7, §8, §9, §10

ducksalad [3] = test: as above; conditions: dose 2.52 g/a
Source text: as §1, §2, §3, §4, §5, §6, §7, §8, §9, §10

transplanted rice = test: Test Example 1: preemergence treatment under submerged conditions, effect on crop; conditions: dose 2.52 g/a
Source text: as §1, §2, §3, §4, §5, §6, §7, §8, §9, §10

barnyardgrass [4] = test: Test Example 2: herbicidal effects during the vegetation period under submerged conditions; conditions: treatment during the vegetation period under submerged conditions; dose 2.52 g/a
Protocol: (§11) Test on the Herbicidal Effects on Weeds During the Vegetation Period Under Submerged Conditions
(§12) Alluvial soil was put in 1/30000-are styrol cups and admixed with water so that it was submerged at a depth of 4 cm. In each cup, seeds of barnyardgrass, bulrush and ducksalad were sown together, and the cups were placed in a greenhouse at 25 to 30° C. to grow the plants. When the barnyardgrass, bulrush and ducksalad reached the 1- or 2-leaf stage, emulsifiable concentrates containing compounds of the present invention formulated in accordance with Formulation Example 2 were applied to the water surfaces at predetermined doses after diluted with water. Three weeks after the application, the herbicidal effects against various plants were determined on the same evaluation scale as in Test Example 1.
as §9, §10

bulrush [5] = test: as above; conditions: treatment during the vegetation period under submerged conditions; dose 2.52 g/a
Protocol: as §11, §12, §9, §10

ducksalad [6] = test: as above; conditions: treatment during the vegetation period under submerged conditions; dose 2.52 g/a
Protocol: as §11, §12, §9, §10

Italian ryegrass [7] = test: Test Example 3: herbicidal effects in soil treatment; conditions: dose 3.2 g/a
Source text: (§13) Test on the Herbicidal Effects in Soil Treatment
(§14) Sterilized diluvial soil was put in plastic boxes with a length of 21 cm, a width of 13 cm and a depth of 7 cm, and seeds of barnyardgrass, large crabgrass, giant foxtail, wild oat, blackgrass, velvetleaf, common ragweed, redroot pigweed, common lambsquater, posumbu knotweed, common chickweed corn, soybean, rice, wheat and sugar beet were sown in spots and covered with an about 1.5 cm-thick soil layer. Emulsifiable concentrates containing compounds of the present invention formulated in accordance with Formulation Example 2 were uniformly applied to the soil surfaces at predetermined doses through a small sprayer after dilute with water. Three weeks after the application, the herbicidal effects against various plants were determined on the same evaluation scale as in Test Example 1.
as §9, §10

barnyardgrass [8] = test: as above; conditions: dose 3.2 g/a
Source text: as §13, §14, §9, §10

common chickweed [9] = test: as above; conditions: dose 3.2 g/a
Source text: as §13, §14, §9, §10

common lambsquater [10] = test: as above; conditions: dose 3.2 g/a
Source text: as §13, §14, §9, §10

common ragweed [11] = test: as above; conditions: dose 3.2 g/a
Source text: as §13, §14, §9, §10

giant foxtail [12] = test: as above; conditions: dose 3.2 g/a
Source text: as §13, §14, §9, §10

large crabgrass [13] = test: as above; conditions: dose 3.2 g/a
Source text: as §13, §14, §9, §10

posumbu knotweed [14] = test: as above; conditions: dose 3.2 g/a
Source text: as §13, §14, §9, §10

redroot pigweed [15] = test: as above; conditions: dose 3.2 g/a
Source text: as §13, §14, §9, §10

water foxtail [16] = test: as above; conditions: dose 3.2 g/a
Source text: as §13, §14, §9, §10

Italian ryegrass [17] = test: Test Example 4: herbicidal effect in foliage treatment; conditions: dose 3.2 g/a, three weeks after the application
Source text: (§15) Test on the Herbicidal Effect in Foliage Treatment
as §14, with “chickweed,” for “chickweed”, “The boxes were placed in a greenhouse at 25 to 30° C. to grow the plants. After 14 days, emulsifiable” for “Emulsifiable”, “foliage” for “soil surfaces”, “diluted” for “dilute”
as §9, §10

barnyardgrass [18] = test: as above; conditions: dose 3.2 g/a, three weeks after the application
Source text: as §15
as §14, with “chickweed,” for “chickweed”, “The boxes were placed in a greenhouse at 25 to 30° C. to grow the plants. After 14 days, emulsifiable” for “Emulsifiable”, “foliage” for “soil surfaces”, “diluted” for “dilute”
as §9, §10

beadstraw = test: as above; conditions: dose 3.2 g/a, three weeks after the application
Source text: as §15
as §14, with “chickweed,” for “chickweed”, “The boxes were placed in a greenhouse at 25 to 30° C. to grow the plants. After 14 days, emulsifiable” for “Emulsifiable”, “foliage” for “soil surfaces”, “diluted” for “dilute”
as §9, §10

common chickweed [19] = test: as above; conditions: dose 3.2 g/a, three weeks after the application
Source text: as §15
as §14, with “chickweed,” for “chickweed”, “The boxes were placed in a greenhouse at 25 to 30° C. to grow the plants. After 14 days, emulsifiable” for “Emulsifiable”, “foliage” for “soil surfaces”, “diluted” for “dilute”
as §9, §10

common lambsquater [20] = test: as above; conditions: dose 3.2 g/a, three weeks after the application
Source text: as §15
as §14, with “chickweed,” for “chickweed”, “The boxes were placed in a greenhouse at 25 to 30° C. to grow the plants. After 14 days, emulsifiable” for “Emulsifiable”, “foliage” for “soil surfaces”, “diluted” for “dilute”
as §9, §10

common ragweed [21] = test: as above; conditions: dose 3.2 g/a, three weeks after the application
Source text: as §15
as §14, with “chickweed,” for “chickweed”, “The boxes were placed in a greenhouse at 25 to 30° C. to grow the plants. After 14 days, emulsifiable” for “Emulsifiable”, “foliage” for “soil surfaces”, “diluted” for “dilute”
as §9, §10

giant foxtail [22] = test: as above; conditions: dose 3.2 g/a, three weeks after the application
Source text: as §15
as §14, with “chickweed,” for “chickweed”, “The boxes were placed in a greenhouse at 25 to 30° C. to grow the plants. After 14 days, emulsifiable” for “Emulsifiable”, “foliage” for “soil surfaces”, “diluted” for “dilute”
as §9, §10

large crabgrass [23] = test: as above; conditions: dose 3.2 g/a, three weeks after the application
Source text: as §15
as §14, with “chickweed,” for “chickweed”, “The boxes were placed in a greenhouse at 25 to 30° C. to grow the plants. After 14 days, emulsifiable” for “Emulsifiable”, “foliage” for “soil surfaces”, “diluted” for “dilute”
as §9, §10

posumbu knotweed [24] = test: as above; conditions: dose 3.2 g/a, three weeks after the application
Source text: as §15
as §14, with “chickweed,” for “chickweed”, “The boxes were placed in a greenhouse at 25 to 30° C. to grow the plants. After 14 days, emulsifiable” for “Emulsifiable”, “foliage” for “soil surfaces”, “diluted” for “dilute”
as §9, §10

redroot pigweed [25] = test: as above; conditions: dose 3.2 g/a, three weeks after the application
Source text: as §15
as §14, with “chickweed,” for “chickweed”, “The boxes were placed in a greenhouse at 25 to 30° C. to grow the plants. After 14 days, emulsifiable” for “Emulsifiable”, “foliage” for “soil surfaces”, “diluted” for “dilute”
as §9, §10

velvetleaf = test: as above; conditions: dose 3.2 g/a, three weeks after the application
Source text: as §15
as §14, with “chickweed,” for “chickweed”, “The boxes were placed in a greenhouse at 25 to 30° C. to grow the plants. After 14 days, emulsifiable” for “Emulsifiable”, “foliage” for “soil surfaces”, “diluted” for “dilute”
as §9, §10

water foxtail [26] = test: as above; conditions: dose 3.2 g/a, three weeks after the application
Source text: as §15
as §14, with “chickweed,” for “chickweed”, “The boxes were placed in a greenhouse at 25 to 30° C. to grow the plants. After 14 days, emulsifiable” for “Emulsifiable”, “foliage” for “soil surfaces”, “diluted” for “dilute”
as §9, §10

CC1(C)CON(Cc2ccccc2NS(=O)(=O)C(F)(F)F)C(=O)O1 [III-10]
A: barnyardgrass, herbicidal effect (evaluation scale 0-5) (barnyardgrass [1]): 5 (mortality of 90% or above (nearly complete death)) | B: bulrush, herbicidal effect (evaluation scale 0-5) (bulrush [2]): 5 (mortality of 90% or above (nearly complete death)) | C: ducksalad, herbicidal effect (evaluation scale 0-5) (ducksalad [3]): 5 (mortality of 90% or above (nearly complete death)) | a: transplanted rice, effect on crop (evaluation scale 0-5) (transplanted rice): 0 (mortality of less than 5% (almost ineffective)) | A: barnyardgrass, herbicidal effect (evaluation scale 0-5) (barnyardgrass [4]): 5 (mortality of 90% or above (nearly complete death)) | B: bulrush, herbicidal effect (evaluation scale 0-5) (bulrush [5]): 5 (mortality of 90% or above (nearly complete death)) | C: ducksalad, herbicidal effect (evaluation scale 0-5) (ducksalad [6]): 5 (mortality of 90% or above (nearly complete death)) | herbicidal effect, H: Italian ryegrass (Italian ryegrass [7]): 4 (mortality of at least 70% and less than 90%) | herbicidal effect, A: barnyardgrass (barnyardgrass [8]): 5 (mortality of 90% or above (nearly complete death)) | herbicidal effect, N: common chickweed (common chickweed [9]): 4 (mortality of at least 70% and less than 90%) | herbicidal effect, L: common lambsquater (common lambsquater [10]): 4 (mortality of at least 70% and less than 90%) | herbicidal effect, J: common ragweed (common ragweed [11]): 5 (mortality of 90% or above (nearly complete death)) | herbicidal effect, E: giant foxtail (giant foxtail [12]): 4 (mortality of at least 70% and less than 90%) | herbicidal effect, D: large crabgrass (large crabgrass [13]): 5 (mortality of 90% or above (nearly complete death)) | herbicidal effect, M: posumbu knotweed (posumbu knotweed [14]): 5 (mortality of 90% or above (nearly complete death)) | herbicidal effect, K: redroot pigweed (redroot pigweed [15]): 2 (mortality of at least 20% and less than 40%) | herbicidal effect, G: water foxtail (water foxtail [16]): 5 (mortality of 90% or above (nearly complete death)) | H: Italian ryegrass, herbicidal effect (Italian ryegrass [17]): 4 (mortality of at least 70% and less than 90%) | A: barnyardgrass, herbicidal effect (barnyardgrass [18]): 5 (mortality of 90% or above (nearly complete death)) | O: beadstraw, herbicidal effect (beadstraw): 5 (mortality of 90% or above (nearly complete death)) | N: common chickweed, herbicidal effect (common chickweed [19]): 1 (mortality of at least 5% and less than 20%) | L: common lambsquater, herbicidal effect (common lambsquater [20]): 4 (mortality of at least 70% and less than 90%) | J: common ragweed, herbicidal effect (common ragweed [21]): 5 (mortality of 90% or above (nearly complete death)) | E: giant foxtail, herbicidal effect (giant foxtail [22]): 1 (mortality of at least 5% and less than 20%) | D: large crabgrass, herbicidal effect (large crabgrass [23]): 4 (mortality of at least 70% and less than 90%) | M: posumbu knotweed, herbicidal effect (posumbu knotweed [24]): 5 (mortality of 90% or above (nearly complete death)) | K: redroot pigweed, herbicidal effect (redroot pigweed [25]): 4 (mortality of at least 70% and less than 90%) | I: velvetleaf, herbicidal effect (velvetleaf): 3 (mortality of at least 40% and less than 70%) | G: water foxtail, herbicidal effect (water foxtail [26]): 5 (mortality of 90% or above (nearly complete death))
